Measured values from PubChem BioAssay (NCI).
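Assay format: 96-well plates, 48-hour exposure. The concentration for 50% growth inhibition is given as GI50. TGI: total growth inhibition.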

Experiments:
Assay in all cases: growth of human tumour cells (NCI), 48 h
[1] = tested on: SR leukemia
[2] = tested on: OVCAR-3 ovarian
[3] = tested on: SK-MEL-5 melanoma
[4] = tested on: HOP-62 NSCLC
[5] = tested on: OVCAR-8 ovarian
[6] = tested on: OVCAR-4 ovarian
[7] = tested on: SN12C renal
[8] = tested on: SNB-78 CNS
[9] = tested on: UO-31 renal
[10] = tested on: SNB-75 CNS
[11] = tested on: SK-MEL-28 melanoma
[12] = tested on: OVCAR-5 ovarian
[13] = tested on: LOX IMVI melanoma
[14] = tested on: CAKI-1 renal
[15] = tested on: U251 CNS
[16] = tested on: SF-539 CNS
[17] = tested on: HOP-92 NSCLC
[18] = tested on: A498 renal
[19] = tested on: HOP-18 NSCLC
[20] = tested on: SF-295 CNS
[21] = tested on: NCI-H23 lung
[22] = tested on: MOLT-4 leukemia
[23] = tested on: SK-MEL-2 melanoma
[24] = tested on: HCC-2998 colon
[25] = tested on: SK-OV-3 ovarian
[26] = tested on: M19-MEL melanoma
[27] = tested on: NCI-H226 lung
[28] = tested on: EKVX NSCLC
[29] = tested on: 786-0 renal
[30] = tested on: IGROV1 ovarian
[31] = tested on: M14 melanoma
[32] = tested on: NCI-H460 lung
[33] = tested on: HCT-116 colon
[34] = tested on: A549 NSCLC
[35] = tested on: MALME-3M melanoma
[36] = tested on: HT29 colon
[37] = tested on: SF-268 CNS
[38] = tested on: UACC-62 melanoma
[39] = tested on: TK-10 renal
[40] = tested on: KM12 colon
[41] = tested on: ACHN renal
[42] = tested on: K-562 leukemia
[43] = tested on: LXFL 529 NSCLC
[44] = tested on: DLD-1 colon
[45] = tested on: XF 498 CNS
[46] = tested on: UACC-257 melanoma
[47] = tested on: SW-620 colon
[48] = tested on: SNB-19 CNS
[49] = tested on: DMS 273 small cell lung
[50] = tested on: CCRF-CEM leukemia
[51] = tested on: HCT-15 colon
[52] = tested on: COLO 205 colon
[53] = tested on: KM20L2 colon
[54] = tested on: HL-60(TB) leukemia
[55] = tested on: DMS 114 small cell lung
[56] = tested on: NCI-H522 lung
[57] = tested on: RPMI-8226 leukemia
[58] = tested on: RXF 393 renal

COc1ccc(N2C(=O)C3CC(c4ccc(C)cc4)c4c([nH]c5ccccc45)C3C2=O)cc1 (centres undefined)
TGI [1]: 4.55 µM
TGI [2]: 12.3 µM
TGI [3]: > 100 µM
TGI [4]: 53.7 µM
TGI [5]: 38.9 µM
TGI [6]: 27.5 µM
TGI [7]: 31.8 µM
TGI [8]: 98.7 µM
TGI [9]: > 70.7 µM
TGI [10]: 51 µM
TGI [11]: 99.7 µM
TGI [12]: > 100 µM
TGI [13]: 26.4 µM
TGI [14]: > 100 µM
TGI [15]: 16.8 µM
TGI [16]: > 62.5 µM
TGI [17]: 73.7 µM
TGI [18]: 55.6 µM
TGI [19]: 10.3 µM
TGI [20]: > 86.8 µM
TGI [21]: > 93.9 µM
TGI [22]: > 58.7 µM
TGI [23]: > 100 µM
TGI [24]: > 100 µM
TGI [25]: 93 µM
TGI [26]: > 100 µM
TGI [27]: 28.1 µM
TGI [28]: > 100 µM
TGI [29]: 26.6 µM
TGI [30]: > 79.6 µM
TGI [31]: > 89.2 µM
TGI [32]: 31.8 µM
TGI [33]: 17.2 µM
TGI [34]: 43.3 µM
TGI [35]: 49.6 µM
TGI [36]: > 100 µM
TGI [37]: > 76.3 µM
TGI [38]: > 100 µM
TGI [39]: > 95.3 µM
TGI [40]: > 100 µM
TGI [41]: > 63.8 µM
TGI [42]: > 100 µM
TGI [43]: > 56.1 µM
TGI [44]: > 100 µM
TGI [45]: > 74 µM
TGI [46]: > 100 µM
TGI [47]: > 55.3 µM
TGI [48]: > 56.3 µM
TGI [49]: > 100 µM
TGI [50]: > 45.6 µM
TGI [51]: > 89.7 µM
TGI [52]: > 48.5 µM
TGI [53]: > 100 µM
TGI [54]: 30.9 µM
TGI [55]: > 86 µM
TGI [56]: 51 µM

[O-]c1ccccc1/C=N/c1nccs1.[O-]c1ccccc1/C=N/c1nccs1.[O]=[U+2]=[O]
GI50 [2]: > 100 µM
TGI [2]: > 100 µM
GI50 [3]: > 100 µM
TGI [3]: > 100 µM
GI50 [57]: 37.7 µM
TGI [57]: > 100 µM
GI50 [4]: > 100 µM
TGI [4]: > 100 µM
GI50 [5]: > 100 µM
TGI [5]: > 100 µM
GI50 [6]: > 100 µM
TGI [6]: > 100 µM
GI50 [7]: > 100 µM
TGI [7]: > 100 µM
GI50 [8]: > 100 µM
TGI [8]: > 100 µM
GI50 [9]: 37.4 µM
TGI [9]: > 100 µM
GI50 [10]: > 100 µM
TGI [10]: > 100 µM
GI50 [11]: > 100 µM
TGI [11]: > 100 µM
GI50 [12]: > 100 µM
TGI [12]: > 100 µM
GI50 [13]: 25.7 µM
TGI [13]: > 100 µM
GI50 [14]: 37.9 µM
TGI [14]: > 100 µM
GI50 [16]: 23.6 µM
TGI [16]: > 100 µM
GI50 [18]: 26.2 µM
TGI [18]: > 100 µM
GI50 [19]: 5.75 µM
TGI [19]: > 100 µM
GI50 [20]: > 100 µM
TGI [20]: > 100 µM
GI50 [21]: > 100 µM
TGI [21]: > 100 µM
GI50 [22]: 27.4 µM
TGI [22]: > 100 µM
GI50 [23]: > 100 µM
TGI [23]: > 100 µM
GI50 [24]: 75.1 µM
TGI [24]: > 100 µM
GI50 [25]: > 100 µM
TGI [25]: > 100 µM
GI50 [26]: > 100 µM
TGI [26]: > 100 µM
GI50 [27]: > 100 µM
TGI [27]: > 100 µM
GI50 [28]: > 100 µM
TGI [28]: > 100 µM
GI50 [29]: 25 µM
TGI [29]: > 100 µM
GI50 [30]: 42.4 µM
TGI [30]: > 100 µM
GI50 [31]: > 100 µM
TGI [31]: > 100 µM
GI50 [33]: 11.5 µM
TGI [33]: > 100 µM
GI50 [34]: > 100 µM
TGI [34]: > 100 µM
GI50 [35]: > 100 µM
TGI [35]: > 100 µM
GI50 [36]: > 100 µM
TGI [36]: > 100 µM
GI50 [37]: > 100 µM
TGI [37]: > 100 µM
GI50 [38]: > 100 µM
TGI [38]: > 100 µM
GI50 [39]: 33.6 µM
TGI [39]: 78.7 µM
GI50 [40]: > 100 µM
TGI [40]: > 100 µM
GI50 [41]: > 100 µM
TGI [41]: > 100 µM
GI50 [42]: 57.1 µM
TGI [42]: > 100 µM
GI50 [58]: > 100 µM
TGI [58]: > 100 µM
GI50 [43]: 29.1 µM
TGI [43]: > 100 µM
GI50 [44]: 22.4 µM
TGI [44]: > 100 µM
GI50 [45]: 98.9 µM
TGI [45]: > 100 µM
GI50 [46]: > 100 µM
TGI [46]: > 100 µM
GI50 [47]: 99.8 µM
TGI [47]: > 100 µM
GI50 [48]: 12.7 µM
TGI [48]: > 100 µM
GI50 [49]: 7.15 µM
TGI [49]: > 100 µM
GI50 [50]: > 100 µM
TGI [50]: > 100 µM
GI50 [51]: 22.2 µM
TGI [51]: > 100 µM
GI50 [52]: > 100 µM
TGI [52]: > 100 µM
GI50 [53]: > 100 µM
TGI [53]: > 100 µM
GI50 [54]: 35.5 µM
TGI [54]: > 100 µM
GI50 [55]: 11.1 µM
TGI [55]: > 100 µM
GI50 [56]: 61.4 µM
TGI [56]: > 100 µM
